From patent publication US9243027B2, “TGR5 modulators and methods of use thereof” (Intercept Pharmaceuticals, Inc., priority 2007, dated 2016) come the findings set out here.

Molecules are shown by their SMILES.

The assay concerns the target T1, TGR5 receptor (Homo sapiens, UniProt Q8TDU6).
T1 sequence (Q8TDU6 1-330): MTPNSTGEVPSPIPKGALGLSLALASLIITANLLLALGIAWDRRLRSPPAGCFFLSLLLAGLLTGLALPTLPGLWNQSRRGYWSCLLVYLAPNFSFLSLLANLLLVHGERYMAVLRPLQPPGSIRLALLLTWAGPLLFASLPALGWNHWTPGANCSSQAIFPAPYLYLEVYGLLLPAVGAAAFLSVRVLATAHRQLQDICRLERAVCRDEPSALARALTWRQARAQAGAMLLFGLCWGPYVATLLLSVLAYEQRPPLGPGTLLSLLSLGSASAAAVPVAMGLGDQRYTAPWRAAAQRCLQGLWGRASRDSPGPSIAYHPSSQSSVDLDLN
Kind of assay: Potency and efficacy on TGR5 receptor, in vitro assays (Kawamata 2003). The class given is cell-based.

Protocol: The potency and efficacy of the compounds of the invention on TGR5 receptor was evaluated using in vitro assays.

As for `C[C@H](CCC(=O)O)[C@H]1CCC2C3C(CC[C@@]21C)[C@@]1(C)CC[C@@H](O)C[C@H]1C[C@H]3O` (stereo partly shown) [CDCA, ChenoDeoxyCholicAcid], the “TGR5 Data Efficacy” value is recorded as 100%.
